Experimental data from patent publication US11377425B1, “Small molecule modulators of IL-17” (LEO Pharma A/S, priority 2018, dated 2022).

target: T1, human IL-17AA (Homo sapiens, UniProt Q16552); experiment: IL-8 release assay in human epithelial keratinocytes adult (HEKa); assay type: cell-based; conditions: HEKa cells, 3 ng/mL HEK-human IL-17AA + 10 ng/mL human TNFalpha; read-out: Rel EC50 IL-8 release assay
T1 construct: host or cells: HEK (human embryonic kidney) cells
T1 sequence (Q16552 24-155): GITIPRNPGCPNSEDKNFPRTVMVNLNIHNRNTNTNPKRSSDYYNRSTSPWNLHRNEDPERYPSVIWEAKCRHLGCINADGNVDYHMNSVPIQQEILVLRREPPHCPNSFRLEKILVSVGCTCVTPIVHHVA
Outline: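 IL-8 release, quantified by HTRF and normalized to controls, reports IL-17 signaling in HEKa cells treated with compound plus final 3 ng/mL IL-17AA (HEK-derived) and 10 ng/mL TNF-alpha for 68-72 h; TNF-alpha-only wells set 100% inhibition. Four-parameter logistic fits (r^2>0.9) give relative IC50 and Emax; PrestoBlue flags cytotoxicity.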

| SMILES | EC50 [nM] |
| --- | --- |
| CC(C)n1nccc1C(=O)N[C@H](C(=O)Nc1ccc(-c2c(C3CC3)ncn2C)cc1)C(C1CC1)C1CC1 [Example 402, N-[(1S)-2,2-dicyclopropyl-1-[[4-(5-cyclopropyl-3-methyl-imidazol-4-yl)phenyl]carbamoyl]ethyl]-2-isopropyl-pyrazole-3-carboxamide] | 100 to 1000 |
| Cc1n[nH]c(C)c1-c1ccc(NC(=O)[C@@H](NC(=O)c2conc2-c2ccc(Cl)cc2)C2CCCCC2)cc1 [Example 69, 3-(4-chlorophenyl)-N-[(1S)-1-cyclohexyl-2-[4-(3,5-dimethyl-1H-pyrazol-4-yl)anilino]-2-oxo-ethyl]isoxazole-4-carboxamide] | > 1000 |
| CC(C)[C@H](NC(=O)OC(C)(C)C)C(=O)Nc1ccc(-c2cncn2C)cc1 [Example 91, tert-butyl N-[(1S)-2-methyl-1-[[4-(3-methylimidazol-4-yl)phenyl]carbamoyl]propyl] carbamate] | > 1000 |
| Cc1n[nH]c(C)c1-c1ccc(NC(=O)C(NC(=O)c2ccnn2C)C2CCCc3cc(F)ccc32)cc1 (single isomer, unassigned) [Example 259] | > 1000 |
| Cc1n[nH]c(N(C)C)c1-c1ccc(NC(=O)[C@@H](NC(=O)c2ccnn2C)C2CCCCC2)cc1 [Example 453, N-[(1S)-1-cyclohexyl-2-[4-[3-(dimethylamino)-5-methyl-1H-pyrazol-4-yl]anilino]-2-oxo-ethyl]-2-methyl-pyrazole-3-carboxamide] | 100 to 1000 |
| Cc1n[nH]c(C)c1-c1ccc(NC(=O)[C@@H](NC(=O)c2ccnn2C(C)C)[C@@H]2CC(C)(C)CCC2(F)F)cc1 [Example 212, N-[(1S)-1-[(1S)-2,2-difluoro-5,5-dimethyl-cyclohexyl]-2-[4-(3,5-dimethyl-1H-pyrazol-4-yl)anilino]-2-oxo-ethyl]-2-isopropyl-pyrazole-3-carboxamide] | < 100 |
| Cc1ncccc1-c1ccc(NC(=O)[C@@H](NC(=O)c2ccnn2C(C)C)C(C2CC2)C2CC2)cc1 [Example 404, N-[(1S)-1-(dicyclopropylmethyl)-2-[4-(2-methyl-3-pyridyl)anilino]-2-oxo-ethyl]-2-isopropyl-pyrazole-3-carboxamide] | 100 to 1000 |
| Cc1nn(COP(=O)(O)O)c(C)c1-c1ccc(NC(=O)[C@@H](NC(=O)c2ccnn2[C@@H](C)CO)C(C2CC2)C2CC2)cc1 [Example 483, Disodium [4-[4-[[(2S)-3,3-dicyclopropyl-2-[[2-[(1S)-2-hydroxy-1-methyl-ethyl]pyrazole-3-carbonyl]amino]propanoyl]amino]phenyl]-3,5-dimethyl-pyrazol-1-yl]methyl phosphate] | < 100 |
| Cc1n[nH]c(C)c1-c1ccc(NC(=O)[C@@H](NC(=O)c2cnnn2C)C2CCCCCC2)cc1 [Example 62, N-[(1S)-1-cycloheptyl-2-[4-(3,5-dimethyl-1H-pyrazol-4-yl)anilino]-2-oxo-ethyl]-3-methyl-triazole-4-carboxamide] | 100 to 1000 |
| Cc1n[nH]c(C)c1-c1ccc(NC(=O)[C@@H](NC(=O)c2ccnn2C(C)CCO)C(C2CC2)C2CC2)cc1 (single isomer, unassigned) [Example 226] | < 100 |
| Cc1n[nH]c(C)c1-c1ccc(NC(=O)C(NC(=O)c2ccnn2C)C2CCCCCCC2)cc1 (single isomer, unassigned) [Example 156, N-[1-cyclooctyl-2-[4-(3,5-dimethyl-1H-pyrazol-4-yl)anilino]-2-oxo-ethyl]-2-methyl-pyrazole-3-carboxamide] | < 100 |
| Cc1n[nH]c(C)c1-c1ccc(NC(=O)[C@@H](NC(=O)c2ccnn2C)C2CCCC2(C)C)cc1 (stereo partly drawn) [Example 231, N-[(1S)-1-(2,2-dimethylcyclopentyl)-2-[4-(3,5-dimethyl-1H-pyrazol-4-yl)anilino]-2-oxo-ethyl]-2-methyl-pyrazole-3-carboxamide] | < 100 |
| Cc1n[nH]c(C)c1-c1ccc(NC(=O)[C@@H](NC(=O)c2ccnn2C(C)C)[C@H]2CCCC(F)(F)C2)cc1 [Example 23, N-[(1S)-1-[(1S)-3,3-difluorocyclohexyl]-2-[4-(3,5-dimethyl-1H-pyrazol-4-yl)anilino]-2-oxo-ethyl]-2-isopropyl-pyrazole-3-carboxamide] | < 100 |
| Cc1nocc1C(=O)N[C@H](C(=O)Nc1ccc(-c2c(C)n[nH]c2C)cc1)C1CCCCC1 [Example 58, N-[(1S)-1-cyclohexyl-2-[4-(3,5-dimethyl-1H-pyrazol-4-yl)anilino]-2-oxo-ethyl]-3-methyl-isoxazole-4-carboxamide] | 100 to 1000 |
| CCC(F)(F)C(=O)N[C@H](C(=O)Nc1ccc(-c2c(C)n[nH]c2C)cc1)C1CCCCC1 [Example 56, N-[(1S)-1-cyclohexyl-2-[4-(3,5-dimethyl-1H-pyrazol-4-yl)anilino]-2-oxo-ethyl]-2,2-difluoro-butanamide] | 100 to 1000 |
| Cc1n[nH]c(C)c1-c1ccc(NC(=O)[C@@H](NC(=O)N2CCCC2C(C)(C)O)C2CCCCC2)cc1 (single isomer, unassigned) [Example 464] | > 1000 |

| SMILES | EC50 [nM] |
| --- | --- |
| Cc1n[nH]c(C)c1-c1ccc(NC(=O)[C@@H](NC(=O)c2ccnn2C2CC2)C2CCCCC2)cc1 [Example 27, N-[(1S)-1-cyclohexyl-2-[4-(3,5-dimethyl-1H-pyrazol-4-yl)anilino]-2-oxo-ethyl]-2-cyclopropyl-pyrazole-3-carboxamide] | 100 to 1000 |
| Cc1n[nH]c(C)c1-c1ccc(NC(=O)[C@@H](NC(=O)c2ccnn2C(C)CO)C(C2CCC2)C2CCC2)cc1 (single isomer, unassigned) [Example 123] | < 100 |
| Cc1n[nH]c(C)c1-c1ccc(NC(=O)[C@@H](NC(=O)c2ccnn2[C@H](C)CO)C(C)C2CCC2)cc1 (single isomer, unassigned) [Example 165] | 100 to 1000 |
| Cn1cncc1-c1ccc(NC(=O)[C@@H](NC(=O)OC2CC2)C2CCCCC2)cc1O [Example 422, Cyclopropyl N-[(1S)-1-cyclohexyl-2-[3-hydroxy-4-(3-methylimidazol-4-yl)anilino]-2-oxo-ethyl]carbamate] | > 1000 |
| Cc1n[nH]c(C)c1-c1ccc(NC(=O)[C@@H](NC(=O)c2ccnn2[C@H](C)CO)C(C)C2CCC2)cc1 (single isomer, unassigned) [Example 164] | 100 to 1000 |
| Cn1cncc1-c1ccc(NC(=O)C(NC(=O)c2ccnn2C)C(c2cccc(Cl)c2)c2cccc(Cl)c2)cc1 (single isomer, unassigned) [Example 373B, N-(1,1-Bis(3-chlorophenyl)-3-((4-(1-methyl-1H-imidazol-5-yl)phenyl)amino)-3-oxopropan-2-yl)-1-methyl-1H-pyrazole-5-carboxamide] | > 1000 |
| CCc1n[nH]c(CC)c1-c1ccc(NC(=O)[C@@H](NC(=O)c2ccnn2[C@H](C)CO)C(C2CC2)C2CC2)cc1 [Example 395, N-[(1S)-1-(dicyclopropylmethyl)-2-[4-(3,5-diethyl-1H-pyrazol-4-yl)anilino]-2-oxo-ethyl]-2-[(1R)-2-hydroxy-1-methyl-ethyl]pyrazole-3-carboxamide] | < 100 |
| CC(C)n1nccc1C(=O)N[C@H](C(=O)Nc1ccc(-c2cccnc2CO)cc1)C(C1CC1)C1CC1 [Example 407, N-[(1S)-1-(dicyclopropylmethyl)-2-[4-[2-(hydroxymethyl)-3-pyridyl]anilino]-2-oxo-ethyl]-2-isopropyl-pyrazole-3-carboxamide] | 100 to 1000 |
| Cc1n[nH]c(C)c1-c1ccc(NC(=O)C(NC(=O)c2ccnn2C(C)C)C2CCCC2C)cc1 (centres unmarked) [Example 251, N-[2-[4-(3,5-dimethyl-1H-pyrazol-4-yl)anilino]-1-(2-methylcyclopentyl)-2-oxo-ethyl]-2-isopropyl-pyrazole-3-carboxamide] | < 100 |
| Cc1n[nH]c(C)c1-c1ccc(NC(=O)[C@@H](NC(=O)c2cnnn2-c2ccccc2)C2CCCCC2)cc1 [Example 61, N-[(1S)-1-cyclohexyl-2-[4-(3,5-dimethyl-1H-pyrazol-4-yl)anilino]-2-oxo-ethyl]-3-phenyl-triazole-4-carboxamide] | 100 to 1000 |
| Cc1n[nH]c(C)c1-c1ccc(NC(=O)[C@H](Cc2ccccc2Cl)NC(=O)c2ccnn2C(C)C)cc1 [Example 24] | 100 to 1000 |
| Cn1cncc1-c1ccc(NC(=O)[C@@H](NC(=O)c2ccnn2C)[C@@H]2CCCc3ccc(Br)cc32)cc1 [Example 344, N-[(1S)-1-[(1R)-7-bromotetralin-1-yl]-2-[4-(3-methylimidazol-4-yl)anilino]-2-oxo-ethyl]-2-methyl-pyrazole-3-carboxamide] | > 1000 |
| Cc1n[nH]c(C)c1-c1ccc(NC(=O)C(NC(=O)c2ccnn2C(C)C)C2CCCCCCC2)cc1 (single isomer, unassigned) [Example 153, N-[1-cyclooctyl-2-[4-(3,5-dimethyl-1H-pyrazol-4-yl)anilino]-2-oxo-ethyl]-2-(1-methylethyl)pyrazole-3-carboxamide] | 100 to 1000 |
| Cc1n[nH]c(C)c1-c1ccc(NC(=O)[C@H](CC2CCC2)NC(=O)c2ccnn2C)cc1 [Example 229, N-[(1S)-1-(cyclobutylmethyl)-2-[4-(3,5-dimethyl-1H-pyrazol-4-yl)anilino]-2-oxo-ethyl]-2-methyl-pyrazole-3-carboxamide] | > 1000 |
| Cc1n[nH]c(C)c1-c1ccc(NC(=O)[C@H](CC2CCC(F)(F)CC2)NC(=O)c2ccnn2C)cc1 [Example 253, N-[(1S)-1-[(4,4-difluorocyclohexyl)methyl]-2-[4-(3,5-dimethyl-1H-pyrazol-4-yl)anilino]-2-oxo-ethyl]-2-methyl-pyrazole-3-carboxamide] | > 1000 |
| CCn1nccc1C(=O)N[C@H](C(=O)Nc1ccc(-c2c(C)n[nH]c2C)cc1)[C@H]1CC[C@H](C)CC1 [Example 126, Trans N-[(1S)-2-[4-(3,5-dimethyl-1H-pyrazol-4-yl)anilino]-1-(4-methylcyclohexyl)-2-oxo-ethyl]-2-ethyl-pyrazole-3-carboxamide] | < 100 |
